According to PMC5843908, “Detection of PRMT1 inhibitors with stopped flow fluorescence” (Signal Transduction and Targeted Therapy, 2018):

Target: PRMT1 (Homo sapiens, UniProt Q99873)
Assay: Stopped flow fluorescence assay of PRMT1 inhibition ([PRMT1] 0.2 µM, [SAM] 3.5 µM, [H4FL] 0.4 µM);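 note: Stopped-flow traces of fluorescent H4FL peptide quenched on binding PRMT1 and restored on release, recorded 900 s, averaged over repeated drives and fit to a double-exponential model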
Type: biochemical
Excerpt: To obtain the IC50 of a specific inhibitor, the relative activities of the enzyme in presence of different concentrations of the inhibitor are required (equation 1).[37] […] By adding different concentrations of the inhibitor to the reaction mixture, the relative activity of the enzyme can be obtained by normalizing K to the reaction rate without the inhibitor, and then calculate the IC50 value using equation 1. In our stopped flow fluorescence assay, the reaction rate of Phase I and Phase II can be obtained by approximating and deriving the double-exponential equation (equation 2). In Phase I, during a very short period of time (where t is small), the curve is nearly linear, and the exponential equation can be approximately described as F1 = a · (−k1) · t. Therefore, the derivation of F1 equals –k1∙a, which is the slope of Phase I. Similarly, the curve of Phase II at early stage can be approximately described as F2 = b · (−k2) · t. This derivation of F2 equals –k2∙b, which is the slope of Phase II. The slopes at various inhibitor concentrations, normalized to the slope in the absence of inhibitor, can be used to obtain the corresponding relative enzyme activity from which the potency value (IC50) of the inhibitor can be calculated with equation 1.
In a stopped flow fluorescence assay, the binding of H4FL to PRMT1 (or the PRMT1—cofactor complex) quenches the peptide fluorescence, while release of the peptide restores the fluorescence. […] The widths of the entrance and exit slits of the monochromator were set to 0.5 mm. An equal volume of samples from two syringes was driven into the observation cell for mixing measurements. The H4FL concentration in all experiments was 0.4 μM. […] The fluorescent signal was recorded for 900 seconds, with 10,000 data points in total. Data from four to six drives were collected and averaged for each curve.
After averaging the shot data, the association time courses were fitted to a double-exponential function (equation 2) using GraphPad Prism (CA, USA). […] F is the fluorescence intensity at time t, k1, and k2 are the rate constants for Phase I and Phase II, a is the amplitude of the fluorescence change for k1, and b is the amplitude of the fluorescence change for k2. Simulation curves based on the values of a, b, k1, and k2 at fixed c = 1 were produced using Matlab. The IC50 value of inhibitors is determined by equation 1 using GraphPad Prism (CA, USA).

Chain of PRMT1 (Q99873 29-371): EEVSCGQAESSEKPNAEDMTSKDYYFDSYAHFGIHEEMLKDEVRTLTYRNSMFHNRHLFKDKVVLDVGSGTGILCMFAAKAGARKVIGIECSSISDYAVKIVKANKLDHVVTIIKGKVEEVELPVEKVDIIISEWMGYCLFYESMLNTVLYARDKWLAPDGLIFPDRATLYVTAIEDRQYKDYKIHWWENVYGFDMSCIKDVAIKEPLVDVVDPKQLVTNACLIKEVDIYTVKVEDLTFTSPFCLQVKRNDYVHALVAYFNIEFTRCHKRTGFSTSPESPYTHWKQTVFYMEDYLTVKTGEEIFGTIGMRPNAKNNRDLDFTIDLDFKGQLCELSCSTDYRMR

## Nc1ncnc2c1ncn2[C@@H]1O[C@H](CSCC[C@H](N)C(=O)O)[C@@H](O)[C@H]1O [SAH, S-adenosyl homocysteine]
[SAH] 0.1 µM
  -b·k2 (slope of Phase II): 0.000677 ± 1.35e-06 s⁻¹
  a (amplitude, Phase I): 0.2027 ± 4.00E-04
  a·k1 (slope of Phase I): 0.0122 ± 4.9e-05 s⁻¹
  b (amplitude, Phase II): -0.2201 ± 1.26E-04
  k1 (rate constant, Phase I): 0.05995 ± 2.11E-04 s^-1
  k2 (rate constant, Phase II): 0.003078 ± 5.86E-06 s^-1
[SAH] 0.25 µM
  -b·k2 (slope of Phase II): 0.000561 ± 1.3e-06 s⁻¹
  a (amplitude, Phase I): 0.2214 ± 4.39E-04
  a·k1 (slope of Phase I): 0.0144 ± 5.59e-05 s⁻¹
  b (amplitude, Phase II): -0.2306 ± 1.33E-04
  k1 (rate constant, Phase I): 0.06487 ± 2.18E-04 s^-1
  k2 (rate constant, Phase II): 0.002434 ± 5.47E-06 s^-1
[SAH] 0.5 µM
  -b·k2 (slope of Phase II): 0.000352 ± 1.25e-06 s⁻¹
  a (amplitude, Phase I): 0.2658 ± 3.49E-04
  b (amplitude, Phase II): -0.2629 ± 3.89E-04
  k1 (rate constant, Phase I): 0.06324 ± 1.36E-04 s^-1
  k2 (rate constant, Phase II): 0.00134 ± 4.32E-06 s^-1
[SAH] 1 µM
  -b·k2 (slope of Phase II): 0.000234 ± 1.38e-06 s⁻¹
  a (amplitude, Phase I): 0.2726 ± 3.65E-04
  a·k1 (slope of Phase I): 0.0186 ± 4.67e-05 s⁻¹
  b (amplitude, Phase II): -0.2134 ± 6.03E-04
  k1 (rate constant, Phase I): 0.06815 ± 1.45E-04 s^-1
  k2 (rate constant, Phase II): 0.001095 ± 5.70E-06 s^-1
[SAH] 2.5 µM
  -b·k2 (slope of Phase II): 0.00011 ± 2.16e-06 s⁻¹
  a (amplitude, Phase I): 0.2961 ± 3.73E-04
  a·k1 (slope of Phase I): 0.0213 ± 4.93e-05 s⁻¹
  b (amplitude, Phase II): -0.1862 ± 2.16E-03
  k1 (rate constant, Phase I): 0.07177 ± 1.40E-04 s^-1
  k2 (rate constant, Phase II): 0.0005933 ± 9.36E-06 s^-1
[SAH] 5 µM
  -b·k2 (slope of Phase II): 5.14e-05 ± 8.08e-06 s⁻¹
  a (amplitude, Phase I): 0.2962 ± 3.74E-04
  b (amplitude, Phase II): -0.3000 ± 3.18E-02
  k1 (rate constant, Phase I): 0.05757 ± 1.17E-04 s^-1
  k2 (rate constant, Phase II): 0.0001714 ± 1.98E-05 s^-1
[SAH] 10 µM
  -b·k2 (slope of Phase II): 2.22e-05 ± 2.71e-05 s⁻¹
  a (amplitude, Phase I): 0.2774 ± 5.02E-04
  b (amplitude, Phase II): -0.2999 ± 2.24E-01
  increasing trend of Phase II: almost abolished
  k1 (rate constant, Phase I): 0.05889 ± 1.70E-04 s^-1
  k2 (rate constant, Phase II): 7.42e-05 ± 5.74e-05 s⁻¹

## Nc1ncnc2c1ncn2[C@@H]1O[C@H](C[C@@H](N)CC[C@H](N)C(=O)O)[C@@H](O)[C@H]1O [sinefungin]
[sinefungin] 0.0375 µM
  -b·k2 (slope of Phase II): 0.000574 ± 1.23e-06 s⁻¹
  a (amplitude, Phase I): 0.1645 ± 3.77E-04
  a·k1 (slope of Phase I): 0.0107 ± 4.96e-05 s⁻¹
  b (amplitude, Phase II): -0.1699 ± 1.17E-04
  k1 (rate constant, Phase I): 0.0653 ± 2.62E-04 s^-1
  k2 (rate constant, Phase II): 0.00338 ± 6.86e-06 s⁻¹
[sinefungin] 0.075 µM
  -b·k2 (slope of Phase II): 0.00042 ± 1.32e-06 s⁻¹
  a (amplitude, Phase I): 0.2064 ± 3.83E-04
  a·k1 (slope of Phase I): 0.0115 ± 4.27e-05 s⁻¹
  b (amplitude, Phase II): -0.2170 ± 1.94E-04
  k1 (rate constant, Phase I): 0.05564 ± 1.79E-04 s^-1
  k2 (rate constant, Phase II): 0.00194 ± 5.83e-06 s⁻¹
[sinefungin] 0.15 µM
  -b·k2 (slope of Phase II): 0.000351 ± 1.48e-06 s⁻¹
  a (amplitude, Phase I): 0.2215 ± 4.17E-04
  a·k1 (slope of Phase I): 0.0126 ± 4.69e-05 s⁻¹
  b (amplitude, Phase II): -0.2165 ± 3.17E-04
  k1 (rate constant, Phase I): 0.05703 ± 1.83E-04 s^-1
  k2 (rate constant, Phase II): 0.00162 ± 6.43e-06 s⁻¹
[sinefungin] 0.3 µM
  -b·k2 (slope of Phase II): 0.00021 ± 1.94e-06 s⁻¹
  a (amplitude, Phase I): 0.2200 ± 4.51E-04
  a·k1 (slope of Phase I): 0.0118 ± 4.79e-05 s⁻¹
  b (amplitude, Phase II): -0.1711 ± 6.89E-04
  k1 (rate constant, Phase I): 0.05374 ± 1.88E-04 s^-1
  k2 (rate constant, Phase II): 0.00123 ± 1.02e-05 s⁻¹
[sinefungin] 0.75 µM
  -b·k2 (slope of Phase II): 0.000123 ± 2.15e-06 s⁻¹
  a (amplitude, Phase I): 0.2668 ± 5.02E-04
  a·k1 (slope of Phase I): 0.0149 ± 5.48e-05 s⁻¹
  b (amplitude, Phase II): -0.1045 ± 8.19E-04
  k1 (rate constant, Phase I): 0.05576 ± 1.77E-04 s^-1
  k2 (rate constant, Phase II): 0.00118 ± 1.83e-05 s⁻¹
[sinefungin] 1.5 µM
  -b·k2 (slope of Phase II): 7.22e-05 ± 5.34e-06 s⁻¹
  a (amplitude, Phase I): 0.287 ± 5.51E-04
  a·k1 (slope of Phase I): 0.0164 ± 6.01e-05 s⁻¹
  b (amplitude, Phase II): -0.1776 ± 8.27E-03
  k1 (rate constant, Phase I): 0.05722 ± 1.79E-04 s^-1
  k2 (rate constant, Phase II): 0.000406 ± 2.33e-05 s⁻¹
[sinefungin] 3 µM
  -b·k2 (slope of Phase II): 4.12e-05 ± 0.000152 s⁻¹
  a (amplitude, Phase I): 0.2925 ± 5.44E-04
  a·k1 (slope of Phase I): 0.0166 ± 5.83e-05 s⁻¹
  b (amplitude, Phase II): -4.517
  k1 (rate constant, Phase I): 0.05659 ± 1.69E-04 s^-1
  k2 (rate constant, Phase II): 9.13e-06 ± 3.36e-05 s⁻¹
[sinefungin] 7.5 µM
  -b·k2 (slope of Phase II): 1.42e-05 ± 0.000372 s⁻¹
  a (amplitude, Phase I): 0.2481 ± 5.15E-04
  a·k1 (slope of Phase I): 0.0148 ± 5.77e-05 s⁻¹
  b (amplitude, Phase II): -4.223
  k1 (rate constant, Phase I): 0.05968 ± 1.97E-04 s^-1
  k2 (rate constant, Phase II): 3.37e-06 ± 8.82e-05 s⁻¹
[sinefungin] 15 µM
  -b·k2 (slope of Phase II): 2.66e-06 ± 0.000274 s⁻¹
  a (amplitude, Phase I): 0.2592 ± 5.43E-04
  a·k1 (slope of Phase I): 0.0145 ± 5.77e-05 s⁻¹
  b (amplitude, Phase II): -0.5239
  k1 (rate constant, Phase I): 0.05599 ± 1.89E-04 s^-1
  k2 (rate constant, Phase II): 5.08e-06 ± 0.000523 s⁻¹
